According to paper PMC3278406 (PLoS ONE, 2012):

Experiments:
Stx1B (Stx1 B-subunits) = Stx1B (Stx1 B-subunits) (Bacteriophage H30, UniProt P69178); assay type: binding, Escherichia coli O157:H7; details: read-out: Kd of Stx1B for glycan
Stx2B (Stx2 B-subunits) = Stx2B (Stx2 B-subunits) (Escherichia phage 933W, UniProt P09386); assay type: binding, Escherichia coli O157:H7
Stx2B (Stx2 B-subunits), sequence (P09386 20-89 limits assumed): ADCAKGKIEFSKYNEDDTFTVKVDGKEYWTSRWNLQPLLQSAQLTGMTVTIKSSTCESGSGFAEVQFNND

Stx1B (Stx1 B-subunits), sequence (P69178 21-89 limits assumed): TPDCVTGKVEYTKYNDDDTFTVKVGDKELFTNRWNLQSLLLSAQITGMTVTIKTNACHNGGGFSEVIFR

With Galα1-4Galβ1-4Glc [Pk] the Kd (Stx1B (Stx1 B-subunits)) was 4 ± 0.3 mM, the “binding of Stx2B to glycan” value (Stx2B (Stx2 B-subunits)) was “no binding” and the Kd (Stx2B (Stx2 B-subunits); read-out: Kd of Stx2B for glycan) was over 12 mM.
